Laboratory results from article PMC12169608, “Peptidomimetic Phenoxymethyl Ketone Warheads as Potent Dual-Mode Inhibitors against SARS-CoV‑2 M^pro and Cathepsin” (Journal of Medicinal Chemistry, 2025).

What was measured:
[1] = Mouse hepatocyte stability
[2] = pH 7.4
[3] = molecular target: mouse cathepsin B (mCTSB) (Mus musculus, UniProt P10605); assay: mCTSB biochemical assay
[4] = molecular target: luciferase-expressing VSV (ΔG) pseudotyped with Spike from SARS-CoV-2; assay: microbe, parasite or virus in culture; assay type: cell-based
[5] = molecular target: T1, human cathepsin L (hCTSL) (Homo sapiens, UniProt P07711); assay: hCTSL biochemical assay
T1 construct: purchased R&D Systems
T1 sequence (P07711 114-333): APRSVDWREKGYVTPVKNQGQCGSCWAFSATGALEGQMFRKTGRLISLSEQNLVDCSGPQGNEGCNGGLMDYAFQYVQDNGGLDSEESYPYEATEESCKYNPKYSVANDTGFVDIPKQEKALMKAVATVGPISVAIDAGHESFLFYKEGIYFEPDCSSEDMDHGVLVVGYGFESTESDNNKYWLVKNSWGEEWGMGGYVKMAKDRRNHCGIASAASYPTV

[6] = molecular target: human cathepsin B (hCTSB) (Homo sapiens, UniProt P07858); assay: hCTSB biochemical assay
[7] = molecular target: mouse cathepsin L (mCTSL) (Mus musculus, UniProt P06797); assay: mCTSL biochemical assay
Sequence of mouse cathepsin L (mCTSL) (P06797 114-334): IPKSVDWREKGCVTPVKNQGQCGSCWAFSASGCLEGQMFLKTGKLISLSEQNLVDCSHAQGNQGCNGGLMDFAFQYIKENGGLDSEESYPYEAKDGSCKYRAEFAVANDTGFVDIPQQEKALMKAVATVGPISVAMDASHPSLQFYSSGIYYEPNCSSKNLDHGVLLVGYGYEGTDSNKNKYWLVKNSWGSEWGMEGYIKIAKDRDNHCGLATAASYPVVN

SARS-CoV-2 M^pro = SARS-CoV-2 M^pro (Severe acute respiratory syndrome coronavirus 2, UniProt P0DTD1); assay: biochemical; assay type: biochemical
[8] = Plasma protein binding (ultra-centrifugation)
Kinetic solubility = settings: PBS buffer pH 7.4

Sequence of mouse cathepsin B (mCTSB) (P10605 80-339): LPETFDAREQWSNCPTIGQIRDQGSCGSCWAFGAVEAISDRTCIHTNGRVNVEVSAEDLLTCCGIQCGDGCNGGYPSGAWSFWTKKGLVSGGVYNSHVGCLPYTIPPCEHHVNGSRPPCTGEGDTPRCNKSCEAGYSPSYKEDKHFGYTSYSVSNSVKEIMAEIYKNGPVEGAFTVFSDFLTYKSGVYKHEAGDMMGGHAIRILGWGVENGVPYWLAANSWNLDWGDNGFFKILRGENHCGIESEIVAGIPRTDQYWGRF

**Q.** With “N-((S)-3-(3-Fluorophenyl)-1-oxo-1-(((S)-2-oxo-5-(5-oxo-1,5-dihydro-4H-1,2,4-triazol-4-yl)-1-(2,3,5,6-tetrafluoro-4-(2-hydroxypropan-2-yl)phenoxy)pentan-3-yl)amino)propan-2-yl)-4-methoxy-1H-indole-2-carboxamide [compound 12]” as the substance, how does the “CLint (mouse hepatocytes + ritonavir 4:1)” value ([1]; compound/ritonavir 4:1) read?
**A.** 37.1 μL/min/10^6 cells

**Q.** And the “t1/2 (mouse hepatocytes + ritonavir 4:1)” value ([1]; compound/ritonavir 4:1)?
**A.** 46.7 min

**Q.** And the “CLint (mouse hepatocytes)” value ([1]; without ritonavir)?
**A.** 76.8 μL/min/10^6 cells

**Q.** What about the “t1/2 (mouse hepatocytes)” value ([1]; without ritonavir) of the same substance?
**A.** 22.6 min

**Q.** And the logD [2]?
**A.** 2.88

**Q.** What about the “pIC50 (mouse CTSB)” value [3] of the same substance?
**A.** > 8.16

**Q.** And the “Entry reporter assay pEC50” value [4]?
**A.** 5.14

**Q.** What about the “hCTSL biochemical assay pIC50” value [5] of the same substance?
**A.** 9.48

**Q.** And the “selectivity for hCTSL over M^pro” value [5]?
**A.** more than 500 fold

**Q.** What about the “pCC50 (CPE), cytotoxicity” value (Vero E6 cells) of the same substance?
**A.** < 5.00

**Q.** What about the “hCTSB biochemical assay pIC50” value [6] of the same substance?
**A.** 6.65

**Q.** What about the “pIC50 (mouse CTSL)” value [7] of the same substance?
**A.** 7.66

**Q.** And the “M^pro biochemical assay pIC50” value (SARS-CoV-2 M^pro)?
**A.** 6.75

**Q.** What about the “mouse plasma protein binding, fraction bound (Fb)” value [8] of the same substance?
**A.** 99.69%

**Q.** What about the “mouse plasma protein binding, fraction unbound (Fu)” value [8] of the same substance?
**A.** 0.31%

**Q.** And the kinetic solubility (Kinetic solubility)?
**A.** 5.84 µM
